Experimental data: US11426361B2, “Eye drops for treatment of irritation not due to infection” (Resdevco Research and Development Co. Ltd., priority 2017, dated 2022)

Tested on: human corneal epithelial cells (HCEC cell line)
Test: Example 5: expression of barrier genes (Involucrin, Occludin, Filaggrin, Cadherin-1) at mRNA level by Q-PCR
Format: cell-based
Conditions: three hours
Description: An experiment was performed to investigate the effect in vitro of a solution containing glycerol on human corneal epithelial cells, in particular, on the expression of barrier genes Involucrin, Occludin, Filaggrin, and Cadherin-1.
Immortalized human corneal epithelial cells (HCEC cell line) cultured in DMEM/F12 with 5% FBS and 10 ng/ml human epidermal growth factor (Invitrogen—Gibco). The cells were treated for three hours with one of the following three compositions: (a) an aqueous solution of glycerol (0.27% w/v); (b) 20 μg/ml Polyinosinic:polycytidylic acid (p(I:C), an activator of TLR3 to induce inflammation; and (c) a combination of the two previous compositions.
The expression of the barrier genes was determined at the mRNA level by use of quantitative “real-time” PCR (Q-PCR). Q-PCR was performed on an ABI Prism 7000 sequence detection system (Applied Biosystems, Foster City, Calif.) using the 5′ nuclease assay. Total RNA was isolated using TRIzol (Invitrogen) and 3 μg of total RNA were reverse-transcribed into cDNA by using 15 U of AMV reverse transcriptase (Promega, Madison, Wis., USA) and 0.025 μg/μl random primers (Promega). PCR amplification was performed by using the TaqMan primers and probes. As internal controls, transcripts of cyclophilin A (PPIA) were determined.

Molecule | effect on barrier-impairing actions of p(I:C) (barrier gene expression) (co-incubation with glycerol 0.27% during p(I:C) 20 μg/ml challenge) | expressions of Involucrin, Occludin, Filaggrin, and Cadherin-1 (p(I:C) 20 μg/ml alone)
OCC(O)CO [glycerol] | significantly prevented the barrier-impairing actions of the TLR3 agonist | 
Polyinosinic:polycytidylic acid [p(I:C)] |  | markedly decreased
